This note sets out measurements from BindingDB's records for patent US20250263395 (Monte Rosa Therapeutics, 2025).

This experiment concerns the target Protein cereblon (Homo sapiens, UniProt Q96SW2). As to the kind of experiment: HTRF assay. On the procedure: Biochemical assays were conducted in Greiner white 384 well HiBase plates (Cat. No 784075-25) in 10 μL total volume. A one pot detection solution of CRBN-DDB1 (2.5 nM), Anti-His Terbium Cryptate Gold (1×, PerkinElmer Cat. #: 61HI2TLB), and Cy5-Thalidomide (100 nM, Tenova Cat.: T52461) was prepared in 20 mM HEPES, 20 mM NaCl, 0.2 mM TCEP, 0.2 mM EDTA, and 0.005% Tween20 was dispensed to each assay plate. Compounds were stored in dry, ambient temperatures at 10 mM. A 10-point, 1:3 dilution series was prepared from 10 mM stock concentrations in Echo-compatible LDV plates. 10 nL of each compound dilution series was dispensed into assays wells using an Echo 650 (Labcyte inc. USA). 10 nL of 10 mM Lenalidomide was transferred into the active-control wells for the assay and 10 nL of DMSO was transferred into the neutral-control wells. The assay was then allowed to incubate for 30 min at ambient temperature after transferring compound. Plate measurements were taken on a Pherastar FSX (BMG Labtech, Germany) using the HTRF Red filter (Ex. 337 nm, em1: 620 nm, em2: 665 nm) (Flashes: 50, Integration time: 60-400 us, Z-height: 10 mm, Ratio-multiplier: 10,000).

Structures are written as SMILES. Where only a bound is given, the exact number is not on record here.

Chain of Protein cereblon (Q96SW2 whole entry): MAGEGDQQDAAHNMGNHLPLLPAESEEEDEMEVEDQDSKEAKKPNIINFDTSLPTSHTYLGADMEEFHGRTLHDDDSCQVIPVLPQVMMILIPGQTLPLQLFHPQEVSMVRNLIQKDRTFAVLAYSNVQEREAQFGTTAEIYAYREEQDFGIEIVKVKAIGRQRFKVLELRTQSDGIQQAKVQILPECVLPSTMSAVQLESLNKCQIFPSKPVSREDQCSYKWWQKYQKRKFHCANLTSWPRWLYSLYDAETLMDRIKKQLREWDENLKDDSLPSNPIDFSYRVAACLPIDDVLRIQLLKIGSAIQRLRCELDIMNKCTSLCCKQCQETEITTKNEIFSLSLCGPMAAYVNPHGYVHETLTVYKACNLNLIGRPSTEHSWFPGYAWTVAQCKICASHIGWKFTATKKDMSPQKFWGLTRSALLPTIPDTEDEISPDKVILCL

As for `O=C1CCC(c2c(F)cc(N3CC(NC(=O)OCC4CC5(CCC5)C4)C3)cc2F)C(=O)N1` (stereo not given) [US20250263395, Compound 1], the Ki is less than 100 nM.
Then `Cc1ccnc(N2CC(OC(=O)NC3CN(c4cc(F)c(C5CCC(=O)NC5=O)c(F)c4)C3)C2)c1` (stereo not given) [US20250263395, Compound 6], with less than 100 nM; and `Cc1cccc(N(C)C(=O)N2CC(OC(=O)NC3CN(c4cc(F)c(C5CCC(=O)NC5=O)c(F)c4)C3)C2)c1` (stereo not given) [US20250263395, Compound 10], with less than 100 nM.
The result for `O=C1CCC(c2c(F)cc(N3CC(NC(=O)OC4CN(C(=O)N5CCCC5)C4)C3)cc2F)C(=O)N1` (stereo not given) [US20250263395, Compound 32] reads less than 100 nM.
Then `Cc1ccc(C)c(N(C)C(=O)C23CC(OC(=O)NC4CN(c5cc(F)c(C6CCC(=O)NC6=O)c(F)c5)C4)(C2)C3)c1` (stereo not given) [US20250263395, Compound 111], with less than 100 nM.
